Measurements as given in publication PMC5564600 (Oncotarget, 2017).
Where two headings read alike, the source gives them in different places.

Tests used:
Test in all cases: biochemical
Assay type in all cases: binding
panel of 442 kinases [1] = molecular target: T1, panel of 442 kinases (Homo sapiens, UniProt P10721, T670I/V559D); conditions: kinase KIT(V559D,T670I); for remaining activity at 1 µM: read-out: % of control at 1 µM
T1 construct: purchased Ambit Biosciences (scanMAXX KINOMEscan)

panel of 442 kinases [2] = molecular target: T2, panel of 442 kinases (Homo sapiens, UniProt O43318); conditions: kinase TAK1; for remaining activity at 1 µM: read-out: TAK1 (% of control at 1 µM)
T2 construct: purchased Ambit Biosciences (scanMAXX KINOMEscan)
T2 sequence (O43318 1-606): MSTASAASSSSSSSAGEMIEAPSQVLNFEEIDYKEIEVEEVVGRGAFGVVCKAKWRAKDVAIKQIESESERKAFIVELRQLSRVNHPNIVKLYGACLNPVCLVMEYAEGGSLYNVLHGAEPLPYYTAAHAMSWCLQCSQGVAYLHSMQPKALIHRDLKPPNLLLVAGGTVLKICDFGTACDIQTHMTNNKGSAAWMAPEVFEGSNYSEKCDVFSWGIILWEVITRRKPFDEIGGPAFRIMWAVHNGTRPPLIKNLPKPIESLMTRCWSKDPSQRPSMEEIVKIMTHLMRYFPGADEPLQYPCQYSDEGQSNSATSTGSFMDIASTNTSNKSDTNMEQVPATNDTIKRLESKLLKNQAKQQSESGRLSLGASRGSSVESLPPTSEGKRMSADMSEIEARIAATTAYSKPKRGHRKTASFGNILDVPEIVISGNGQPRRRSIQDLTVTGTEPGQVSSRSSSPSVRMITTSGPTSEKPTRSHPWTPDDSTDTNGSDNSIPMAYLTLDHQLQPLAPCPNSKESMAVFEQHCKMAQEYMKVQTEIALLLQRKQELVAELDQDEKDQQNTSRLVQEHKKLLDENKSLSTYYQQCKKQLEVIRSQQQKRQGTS

panel of 442 kinases [3] = molecular target: T3, panel of 442 kinases (Homo sapiens, UniProt Q8TDR2); conditions: kinase STK35; for remaining activity at 1 µM: read-out: STK35 (% of control at 1 µM)
T3 construct: purchased Ambit Biosciences (scanMAXX KINOMEscan)
T3 sequence (Q8TDR2 whole entry): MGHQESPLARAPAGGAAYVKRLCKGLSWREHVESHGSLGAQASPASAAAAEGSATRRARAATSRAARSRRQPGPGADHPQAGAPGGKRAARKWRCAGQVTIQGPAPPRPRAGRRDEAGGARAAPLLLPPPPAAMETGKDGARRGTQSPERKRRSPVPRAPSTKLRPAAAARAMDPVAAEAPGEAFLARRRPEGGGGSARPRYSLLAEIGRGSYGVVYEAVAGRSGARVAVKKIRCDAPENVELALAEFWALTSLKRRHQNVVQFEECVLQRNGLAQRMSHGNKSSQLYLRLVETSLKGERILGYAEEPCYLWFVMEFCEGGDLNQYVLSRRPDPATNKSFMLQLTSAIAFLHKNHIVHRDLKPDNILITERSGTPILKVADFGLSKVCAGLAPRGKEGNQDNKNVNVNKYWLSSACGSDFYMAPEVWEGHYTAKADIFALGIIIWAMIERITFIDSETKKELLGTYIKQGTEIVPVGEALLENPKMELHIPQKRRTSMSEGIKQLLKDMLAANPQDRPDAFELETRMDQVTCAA

panel of 442 kinases [4] = molecular target: T4, panel of 442 kinases (Homo sapiens, UniProt Q9UPE1); conditions: kinase SRPK3; for remaining activity at 1 µM: read-out: SRPK3 (% of control at 1 µM)
T4 construct: purchased Ambit Biosciences (scanMAXX KINOMEscan)
T4 sequence (Q9UPE1 whole entry): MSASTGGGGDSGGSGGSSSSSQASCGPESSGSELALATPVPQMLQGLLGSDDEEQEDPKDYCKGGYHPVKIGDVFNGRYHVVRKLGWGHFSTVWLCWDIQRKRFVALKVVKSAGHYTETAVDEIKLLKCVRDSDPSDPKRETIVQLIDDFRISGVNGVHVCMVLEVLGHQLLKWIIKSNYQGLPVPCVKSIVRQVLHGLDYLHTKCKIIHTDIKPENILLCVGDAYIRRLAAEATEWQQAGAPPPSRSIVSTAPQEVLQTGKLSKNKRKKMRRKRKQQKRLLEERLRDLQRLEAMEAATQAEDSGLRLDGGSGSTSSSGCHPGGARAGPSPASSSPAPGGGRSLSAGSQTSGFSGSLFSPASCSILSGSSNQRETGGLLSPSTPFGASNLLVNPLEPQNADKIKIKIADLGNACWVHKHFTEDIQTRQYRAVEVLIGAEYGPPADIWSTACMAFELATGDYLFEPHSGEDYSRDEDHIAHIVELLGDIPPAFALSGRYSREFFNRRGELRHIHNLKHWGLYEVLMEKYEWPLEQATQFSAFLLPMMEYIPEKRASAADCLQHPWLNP

panel of 442 kinases [5] = molecular target: T5, panel of 442 kinases (Homo sapiens, UniProt Q96L34); conditions: kinase MARK4; for remaining activity at 1 µM: read-out: % of control at 1 µM
T5 construct: purchased Ambit Biosciences (scanMAXX KINOMEscan)
T5 sequence (Q96L34 1-752): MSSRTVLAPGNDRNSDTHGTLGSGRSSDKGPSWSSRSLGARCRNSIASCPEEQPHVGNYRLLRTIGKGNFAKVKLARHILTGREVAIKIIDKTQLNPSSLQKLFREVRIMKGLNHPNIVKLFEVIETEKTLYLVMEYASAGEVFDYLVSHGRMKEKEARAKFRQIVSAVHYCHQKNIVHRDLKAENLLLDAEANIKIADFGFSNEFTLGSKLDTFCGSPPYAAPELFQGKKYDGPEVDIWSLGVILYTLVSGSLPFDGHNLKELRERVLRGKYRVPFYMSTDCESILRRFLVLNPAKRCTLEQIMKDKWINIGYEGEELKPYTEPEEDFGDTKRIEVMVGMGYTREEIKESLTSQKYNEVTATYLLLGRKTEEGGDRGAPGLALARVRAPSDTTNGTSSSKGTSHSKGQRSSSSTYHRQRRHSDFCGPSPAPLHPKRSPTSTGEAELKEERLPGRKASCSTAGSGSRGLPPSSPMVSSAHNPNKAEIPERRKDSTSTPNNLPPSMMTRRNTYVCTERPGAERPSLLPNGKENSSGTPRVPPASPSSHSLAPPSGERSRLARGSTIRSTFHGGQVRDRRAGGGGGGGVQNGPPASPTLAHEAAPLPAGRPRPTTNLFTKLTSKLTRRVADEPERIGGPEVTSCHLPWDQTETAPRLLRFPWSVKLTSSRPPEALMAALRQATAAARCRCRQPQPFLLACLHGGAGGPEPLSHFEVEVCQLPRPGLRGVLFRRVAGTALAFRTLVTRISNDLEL

panel of 442 kinases [6] = molecular target: T6, panel of 442 kinases (Homo sapiens, UniProt Q9HCP0); conditions: CSNK1G1; for remaining activity at 1 µM: read-out: % of control at 1 µM
T6 construct: purchased Ambit Biosciences (scanMAXX KINOMEscan)
T6 sequence (Q9HCP0 whole entry): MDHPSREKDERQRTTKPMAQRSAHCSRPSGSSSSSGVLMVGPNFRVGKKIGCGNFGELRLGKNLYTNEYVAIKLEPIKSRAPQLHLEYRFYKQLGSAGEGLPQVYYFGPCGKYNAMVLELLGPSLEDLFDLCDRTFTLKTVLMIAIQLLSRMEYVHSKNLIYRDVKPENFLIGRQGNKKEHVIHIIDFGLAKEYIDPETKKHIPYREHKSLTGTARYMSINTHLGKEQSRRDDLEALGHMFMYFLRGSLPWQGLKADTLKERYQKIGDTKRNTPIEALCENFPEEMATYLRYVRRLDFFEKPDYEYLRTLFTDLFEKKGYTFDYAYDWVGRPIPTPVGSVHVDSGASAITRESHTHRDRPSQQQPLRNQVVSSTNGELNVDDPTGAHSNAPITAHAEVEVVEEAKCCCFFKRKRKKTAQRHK

panel of 442 kinases [7] = molecular target: T7, panel of 442 kinases (Homo sapiens, UniProt Q9UK32)
T7 construct: purchased Ambit Biosciences (scanMAXX KINOMEscan)
T7 sequence (Q9UK32 whole entry): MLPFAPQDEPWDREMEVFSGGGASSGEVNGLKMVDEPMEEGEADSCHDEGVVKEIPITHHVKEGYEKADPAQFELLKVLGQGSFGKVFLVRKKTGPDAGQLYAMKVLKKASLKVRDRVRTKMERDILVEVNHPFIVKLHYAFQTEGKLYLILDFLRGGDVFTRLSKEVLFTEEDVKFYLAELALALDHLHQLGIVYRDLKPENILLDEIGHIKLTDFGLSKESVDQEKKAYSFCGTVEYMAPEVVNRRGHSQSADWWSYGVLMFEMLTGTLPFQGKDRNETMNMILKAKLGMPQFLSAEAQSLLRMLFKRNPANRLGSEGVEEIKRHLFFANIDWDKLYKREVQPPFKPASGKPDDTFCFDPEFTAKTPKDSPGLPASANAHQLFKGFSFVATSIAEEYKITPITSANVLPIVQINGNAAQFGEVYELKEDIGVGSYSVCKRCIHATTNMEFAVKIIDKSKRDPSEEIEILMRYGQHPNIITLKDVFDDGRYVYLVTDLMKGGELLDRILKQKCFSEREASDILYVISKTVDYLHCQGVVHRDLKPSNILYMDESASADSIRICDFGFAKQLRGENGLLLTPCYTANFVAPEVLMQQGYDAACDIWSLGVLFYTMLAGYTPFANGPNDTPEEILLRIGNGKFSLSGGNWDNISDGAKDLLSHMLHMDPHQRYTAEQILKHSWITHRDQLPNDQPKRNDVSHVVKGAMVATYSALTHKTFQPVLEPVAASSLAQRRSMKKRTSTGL

panel of 442 kinases [8] = molecular target: T8, panel of 442 kinases (Homo sapiens, UniProt P00533, L858R); conditions: EGFR(L858R); for remaining activity at 1 µM: read-out: % of control at 1 µM
T8 construct: purchased Ambit Biosciences (scanMAXX KINOMEscan)
T8 sequence (P00533 25-1210 L858R): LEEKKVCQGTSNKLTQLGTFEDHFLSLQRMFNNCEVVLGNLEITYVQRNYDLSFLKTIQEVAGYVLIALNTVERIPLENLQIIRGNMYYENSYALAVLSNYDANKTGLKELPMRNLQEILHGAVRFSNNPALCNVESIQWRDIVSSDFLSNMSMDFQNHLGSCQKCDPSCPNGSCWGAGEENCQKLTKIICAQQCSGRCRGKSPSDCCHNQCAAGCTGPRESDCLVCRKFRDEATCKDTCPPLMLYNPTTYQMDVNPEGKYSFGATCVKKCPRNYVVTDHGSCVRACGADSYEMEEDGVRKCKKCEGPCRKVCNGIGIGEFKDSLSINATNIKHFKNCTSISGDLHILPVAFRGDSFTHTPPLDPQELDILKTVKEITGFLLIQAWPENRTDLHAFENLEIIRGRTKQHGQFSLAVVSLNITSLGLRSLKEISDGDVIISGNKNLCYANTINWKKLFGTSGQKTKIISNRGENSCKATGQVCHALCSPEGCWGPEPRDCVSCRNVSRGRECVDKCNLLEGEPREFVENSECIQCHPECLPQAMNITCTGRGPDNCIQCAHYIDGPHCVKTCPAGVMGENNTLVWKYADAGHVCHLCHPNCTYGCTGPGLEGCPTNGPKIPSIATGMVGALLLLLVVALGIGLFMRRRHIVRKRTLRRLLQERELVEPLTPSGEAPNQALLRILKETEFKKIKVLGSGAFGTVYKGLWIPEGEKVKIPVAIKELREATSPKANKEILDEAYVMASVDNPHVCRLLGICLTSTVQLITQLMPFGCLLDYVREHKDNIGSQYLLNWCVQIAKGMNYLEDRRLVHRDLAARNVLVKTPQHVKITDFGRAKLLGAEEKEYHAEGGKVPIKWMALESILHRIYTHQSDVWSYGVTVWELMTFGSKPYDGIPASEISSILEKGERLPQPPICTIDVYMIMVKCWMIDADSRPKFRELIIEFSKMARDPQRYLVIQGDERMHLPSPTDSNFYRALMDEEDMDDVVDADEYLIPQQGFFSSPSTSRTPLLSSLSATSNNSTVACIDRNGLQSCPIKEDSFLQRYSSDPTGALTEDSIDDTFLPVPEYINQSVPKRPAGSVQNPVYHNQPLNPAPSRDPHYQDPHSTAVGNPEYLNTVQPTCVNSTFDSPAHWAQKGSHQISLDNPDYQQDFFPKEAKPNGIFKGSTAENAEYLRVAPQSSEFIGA

panel of 442 kinases [9] = molecular target: T9, panel of 442 kinases (Homo sapiens, UniProt P08631); conditions: kinase HCK; for remaining activity at 1 µM: read-out: % of control at 1 µM
T9 construct: purchased Ambit Biosciences (scanMAXX KINOMEscan)
T9 sequence (P08631 whole entry): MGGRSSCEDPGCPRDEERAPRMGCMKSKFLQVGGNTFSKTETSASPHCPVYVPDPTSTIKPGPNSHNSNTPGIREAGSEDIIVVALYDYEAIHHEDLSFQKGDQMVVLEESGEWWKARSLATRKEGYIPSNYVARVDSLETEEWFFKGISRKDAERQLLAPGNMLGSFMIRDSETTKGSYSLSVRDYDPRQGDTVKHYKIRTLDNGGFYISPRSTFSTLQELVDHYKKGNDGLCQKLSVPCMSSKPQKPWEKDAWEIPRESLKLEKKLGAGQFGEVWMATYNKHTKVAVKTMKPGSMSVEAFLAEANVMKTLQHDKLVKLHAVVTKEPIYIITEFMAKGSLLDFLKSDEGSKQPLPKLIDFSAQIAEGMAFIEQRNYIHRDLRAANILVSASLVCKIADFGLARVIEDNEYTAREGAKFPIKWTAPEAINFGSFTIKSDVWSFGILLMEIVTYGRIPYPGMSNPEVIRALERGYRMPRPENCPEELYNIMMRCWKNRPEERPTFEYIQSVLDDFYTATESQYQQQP

panel of 442 kinases [10] = molecular target: T10, panel of 442 kinases (Homo sapiens, UniProt P00519, Q252H); conditions: for remaining activity at 1 µM: read-out: % of control at 1 µM; for remaining activity at 10 µM: read-out: % of control at 10 µM
T10 construct: purchased Ambit Biosciences (scanMAXX KINOMEscan)

panel of 442 kinases [11] = molecular target: T11, panel of 442 kinases (Homo sapiens, UniProt P45985); conditions: kinase MEK4; for remaining activity at 1 µM: read-out: % of control at 1 µM
T11 construct: purchased Ambit Biosciences (scanMAXX KINOMEscan)
T11 sequence (P45985 1-399): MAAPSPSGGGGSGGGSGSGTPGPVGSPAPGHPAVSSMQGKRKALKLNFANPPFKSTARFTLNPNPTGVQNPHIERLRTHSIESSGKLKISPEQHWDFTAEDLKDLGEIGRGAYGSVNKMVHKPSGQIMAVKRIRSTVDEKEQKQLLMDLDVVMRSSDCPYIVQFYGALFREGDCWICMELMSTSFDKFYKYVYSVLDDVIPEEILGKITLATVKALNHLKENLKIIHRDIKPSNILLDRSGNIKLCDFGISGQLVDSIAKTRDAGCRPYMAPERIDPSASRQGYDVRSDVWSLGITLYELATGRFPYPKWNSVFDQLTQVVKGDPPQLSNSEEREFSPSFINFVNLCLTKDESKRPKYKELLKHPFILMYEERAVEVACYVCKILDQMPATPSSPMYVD

[12] = 10 µM, read-out: % of control at 10 µM
[13] = kinase RSK4(Kin.Dom.1-N-terminal), read-out: RSK4(Kin.Dom.1-N-terminal) (% of control at 1 µM)
[14] = kinase RSK4(Kin.Dom.2-C-terminal), read-out: RSK4(Kin.Dom.2-C-terminal) (% of control at 1 µM)

T1 sequence (P10721 26-976 V559D/T670I): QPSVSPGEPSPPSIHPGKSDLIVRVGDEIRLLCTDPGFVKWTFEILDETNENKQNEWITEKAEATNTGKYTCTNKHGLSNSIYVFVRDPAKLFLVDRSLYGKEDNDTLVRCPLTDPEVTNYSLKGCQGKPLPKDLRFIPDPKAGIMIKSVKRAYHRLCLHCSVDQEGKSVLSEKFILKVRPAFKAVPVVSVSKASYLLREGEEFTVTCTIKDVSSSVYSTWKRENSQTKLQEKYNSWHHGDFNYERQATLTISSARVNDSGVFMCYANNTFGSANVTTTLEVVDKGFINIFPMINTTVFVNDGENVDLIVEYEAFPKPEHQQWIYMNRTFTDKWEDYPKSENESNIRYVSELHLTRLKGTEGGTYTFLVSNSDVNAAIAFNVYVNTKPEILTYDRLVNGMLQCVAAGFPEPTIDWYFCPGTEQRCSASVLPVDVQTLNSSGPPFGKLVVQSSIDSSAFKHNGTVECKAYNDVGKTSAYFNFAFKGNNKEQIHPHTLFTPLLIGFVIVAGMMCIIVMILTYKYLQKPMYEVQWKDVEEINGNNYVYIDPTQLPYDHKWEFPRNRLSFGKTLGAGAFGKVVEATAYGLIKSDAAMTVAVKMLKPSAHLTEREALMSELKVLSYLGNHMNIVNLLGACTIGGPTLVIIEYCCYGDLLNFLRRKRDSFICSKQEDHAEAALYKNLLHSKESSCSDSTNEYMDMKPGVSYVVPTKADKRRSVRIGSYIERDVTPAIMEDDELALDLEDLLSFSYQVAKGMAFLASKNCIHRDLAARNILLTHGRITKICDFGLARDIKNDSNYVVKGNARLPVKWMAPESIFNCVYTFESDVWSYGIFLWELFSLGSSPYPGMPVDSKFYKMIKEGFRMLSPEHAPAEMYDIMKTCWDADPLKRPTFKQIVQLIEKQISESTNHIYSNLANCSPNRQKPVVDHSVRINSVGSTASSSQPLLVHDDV

Compound | remaining activity at 1 µM (panel of 442 kinases [1]) | remaining activity at 1 µM (panel of 442 kinases [2]) | remaining activity at 1 µM (panel of 442 kinases [3]) | remaining activity at 1 µM (panel of 442 kinases [4]) | remaining activity at 1 µM (panel of 442 kinases [5]) | remaining activity at 1 µM (panel of 442 kinases [6]) | remaining activity at 1 µM (panel of 442 kinases [7]; [13]) | remaining activity at 1 µM (panel of 442 kinases [7]; [14]) | remaining activity at 1 µM (panel of 442 kinases [8]) | remaining activity at 1 µM (panel of 442 kinases [9]) | remaining activity at 1 µM (panel of 442 kinases [10]; ABL1(Q252H)-nonphosphorylated) | remaining activity at 1 µM (panel of 442 kinases [10]; ABL1(Q252H)-phosphorylated) | remaining activity at 1 µM (panel of 442 kinases [11]) | also measured
Nc1cc(C(F)(F)F)c(-c2cc(N3CCOCC3)nc(N3CCOCC3)n2)cn1 [Buparlisib] | 90% | 100% | 99% | 100% | 100% | 95% | 99% | 100% | 100% | 100% | 100% | 72% | 100% | remaining activity at 10 µM (panel of 442 kinases [1]; [12]): 70%; remaining activity at 10 µM (panel of 442 kinases [2]; 10 µM, read-out: TAK1 (% of control at 10 µM)): 100%; remaining activity at 10 µM (panel of 442 kinases [3]; 10 µM, read-out: STK35 (% of control at 10 µM)): 98%; remaining activity at 10 µM (panel of 442 kinases [4]; 10 µM, read-out: SRPK3 (% of control at 10 µM)): 100%; remaining activity at 10 µM (panel of 442 kinases [5]; [12]): 91%; remaining activity at 10 µM (panel of 442 kinases [6]; [12]): 95%; remaining activity at 10 µM (panel of 442 kinases [7]; kinase RSK4(Kin.Dom.1-N-terminal), read-out: RSK4(Kin.Dom.1-N-terminal) (% of control at 10 µM)): 100%; remaining activity at 10 µM (panel of 442 kinases [7]; kinase RSK4(Kin.Dom.2-C-terminal), read-out: RSK4(Kin.Dom.2-C-terminal) (% of control at 10 µM)): 100%; remaining activity at 10 µM (panel of 442 kinases [8]; [12]): 100%; remaining activity at 10 µM (panel of 442 kinases [9]; [12]): 100%; remaining activity at 10 µM (panel of 442 kinases [10]; ABL1(Q252H)-nonphosphorylated): 100%; remaining activity at 10 µM (panel of 442 kinases [10]; ABL1(Q252H)-phosphorylated): 100%; remaining activity at 10 µM (panel of 442 kinases [11]; [12]): 100%
Cn1c(=O)n(-c2ccc(C(C)(C)C#N)cc2)c2c3cc(-c4cnc5ccccc5c4)ccc3ncc21 [Dactolisib, 2-methyl-2-[4-(3-methyl-2-oxo-8-quinolin-3-yl-2,3-dihydroimidazo[4,5-c]quinolin-1-yl)-phenyl] propionitrile] | 64% | 55% | 73% | 91% | 61% | 67% | 71% | 82% |  | 94% | 57% | 59% | 83% | 
COc1ncc(-c2ccc3nccc(-c4ccnnc4)c3c2)cc1NS(=O)(=O)c1ccc(F)cc1F [Omipalisib] | 100% | 82% | 100% | 100% | 83% | 100% | 88% | 79% | 83% | 100% | 100% | 100% | 48% | 
FC(F)c1nc2ccccc2n1-c1nc(N2CCOCC2)nc(N2CCOCC2)n1 [ZSTK474, 2-(difluoromethyl)-1-[4,6-di(4-morpholinyl)-1,3,5-triazin-2-yl]-1H-benzimidazole] | 98% | 68% | 89% | 100% | 100% | 81% | 81% | 91% | 100% | 100% | 100% | 100% | 63% | 
